# Laboratory results: patent publication US6780821B1, “Substituted phenyl uracils” (Bayer Aktiengesellschaft, priority 1998, dated 2004)
row,Compound,melting point [°C]
1,"COc1ccc(Oc2cc(-n3c(=O)cc(C(F)(F)F)[nH]c3=O)c(F)cc2C#N)cc1 [Example 1, 4-(3,6-dihydro-2,6-dioxo-4-trifluoromethyl-1(2H)-pyrimidin-1-yl)-5-fluoro-2-(4-methoxy-phenoxy)-benzonitrile]",84
2,"COc1ccc(Oc2cc(-n3c(=O)cc(C(F)(F)F)n(C)c3=O)c(F)cc2C#N)cc1 [Example 2, 4-(3,6-dihydro-2,6-dioxo-3-methyl-4-trifluoromethyl-1(2H)-pyrimidin-1-yl)-5-fluoro-2-(4-methoxy-phenoxy)-benzonitrile]",62
